Source: ChEMBL document CHEMBL5696442, “Discovery of type II inhibitors of TGFβ-activated kinase 1 (TAK1) and mitogen-activated protein kinase kinase kinase kinase 2 (MAP4K2)” (J Med Chem, 2015)

How the values were obtained:
[1] = target: T1, Serine/threonine-protein kinase Nek1 (Homo sapiens) (UniProt Q96PY6); experiment: Inhibition of NEK1 K2 labeling site in human Huh-7 cells at 1 uM by KiNativ Profiling analysis relative to control; format: cell-based
T1 sequence (whole entry): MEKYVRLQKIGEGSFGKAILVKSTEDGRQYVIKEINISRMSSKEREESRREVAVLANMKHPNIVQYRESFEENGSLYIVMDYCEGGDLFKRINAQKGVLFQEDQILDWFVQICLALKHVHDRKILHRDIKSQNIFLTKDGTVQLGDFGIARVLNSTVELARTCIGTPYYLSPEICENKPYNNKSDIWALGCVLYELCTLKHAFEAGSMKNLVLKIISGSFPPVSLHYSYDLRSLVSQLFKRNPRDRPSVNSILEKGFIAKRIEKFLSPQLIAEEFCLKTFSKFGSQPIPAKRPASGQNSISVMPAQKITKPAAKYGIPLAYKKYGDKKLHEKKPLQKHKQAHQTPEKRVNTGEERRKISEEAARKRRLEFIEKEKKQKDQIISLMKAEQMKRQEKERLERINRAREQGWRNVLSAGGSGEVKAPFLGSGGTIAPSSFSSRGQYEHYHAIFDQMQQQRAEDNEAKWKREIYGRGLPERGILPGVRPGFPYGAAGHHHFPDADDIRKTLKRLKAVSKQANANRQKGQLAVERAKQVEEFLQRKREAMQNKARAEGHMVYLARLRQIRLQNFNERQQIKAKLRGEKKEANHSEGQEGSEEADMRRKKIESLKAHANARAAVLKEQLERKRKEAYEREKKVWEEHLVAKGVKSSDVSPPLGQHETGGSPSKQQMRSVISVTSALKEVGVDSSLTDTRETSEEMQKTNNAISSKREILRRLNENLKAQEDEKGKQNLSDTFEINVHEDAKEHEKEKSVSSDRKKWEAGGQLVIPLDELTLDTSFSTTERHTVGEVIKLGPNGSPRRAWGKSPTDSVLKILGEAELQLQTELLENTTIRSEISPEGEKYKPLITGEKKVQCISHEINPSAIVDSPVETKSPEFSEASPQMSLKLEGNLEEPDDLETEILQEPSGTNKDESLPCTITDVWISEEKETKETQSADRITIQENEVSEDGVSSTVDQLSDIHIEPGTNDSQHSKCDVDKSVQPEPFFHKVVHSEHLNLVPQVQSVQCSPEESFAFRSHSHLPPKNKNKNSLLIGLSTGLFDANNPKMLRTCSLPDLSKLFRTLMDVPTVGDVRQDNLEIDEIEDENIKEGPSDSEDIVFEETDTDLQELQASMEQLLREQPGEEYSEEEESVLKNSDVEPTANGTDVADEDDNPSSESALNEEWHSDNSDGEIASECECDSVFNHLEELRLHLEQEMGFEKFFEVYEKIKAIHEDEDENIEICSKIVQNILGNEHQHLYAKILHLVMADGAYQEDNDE

[2] = target: Insulin receptor-related protein (Homo sapiens) (UniProt P14616); experiment: Inhibition of INSRR (unknown origin) at 1 uM by Ambit Kinomescan binding assay relative to control; values are per cent of control
[3] = target: Serine/threonine-protein kinase Nek5 (Homo sapiens) (UniProt Q6P3R8); experiment: Inhibition of NEK5 (unknown origin) at 1 uM by Ambit Kinomescan binding assay relative to control; values are per cent of control
[4] = system: Mast/stem cell growth factor receptor Kit (Homo sapiens), P10721 [L576P]; experiment: Inhibition of KIT L576P mutant (unknown origin) at 1 uM by Ambit Kinomescan binding assay relative to control; values are per cent of control
[5] = target: T2, Inhibitor of nuclear factor kappa-B kinase subunit epsilon (Homo sapiens) (UniProt Q14164); experiment: Inhibition of IKKe Lys2 labeling site in human A-375 cells at 5 uM by KiNativ Profiling analysis relative to control; format: cell-based
T2 sequence (whole entry): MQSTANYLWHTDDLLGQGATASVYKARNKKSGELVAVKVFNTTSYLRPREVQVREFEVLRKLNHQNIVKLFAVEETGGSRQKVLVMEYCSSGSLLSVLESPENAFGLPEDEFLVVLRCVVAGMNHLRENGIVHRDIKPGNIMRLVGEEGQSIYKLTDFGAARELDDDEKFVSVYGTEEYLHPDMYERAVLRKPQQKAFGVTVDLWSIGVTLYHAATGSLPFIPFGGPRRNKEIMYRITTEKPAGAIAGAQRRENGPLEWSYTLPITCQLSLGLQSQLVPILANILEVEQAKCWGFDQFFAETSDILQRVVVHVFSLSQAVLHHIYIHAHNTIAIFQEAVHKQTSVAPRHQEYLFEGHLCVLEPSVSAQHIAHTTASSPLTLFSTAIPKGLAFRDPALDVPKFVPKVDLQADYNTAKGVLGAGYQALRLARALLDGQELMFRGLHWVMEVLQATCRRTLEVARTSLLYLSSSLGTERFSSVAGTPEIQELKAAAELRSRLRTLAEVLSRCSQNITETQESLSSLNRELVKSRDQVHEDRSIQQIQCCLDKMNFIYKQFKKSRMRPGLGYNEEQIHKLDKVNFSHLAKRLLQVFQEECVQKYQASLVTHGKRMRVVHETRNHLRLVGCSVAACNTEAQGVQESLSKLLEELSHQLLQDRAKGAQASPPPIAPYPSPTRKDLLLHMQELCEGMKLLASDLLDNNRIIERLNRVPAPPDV

[6] = target: Casein kinase I isoform epsilon (Homo sapiens) (UniProt P49674); experiment: Inhibition of CK1epsilon Lys2 labeling site in human Huh-7 cell lysate at 1 uM by KiNativ Profiling analysis relative to control; format: subcellular
[7] = target: Microtubule-associated serine/threonine-protein kinase 3 (Homo sapiens) (UniProt O60307); experiment: Inhibition of MAST3 Lys2 labeling site in human Huh-7 cell lysate at 1 uM by KiNativ Profiling analysis relative to control; format: subcellular
[8] = target: T3, Phosphatidylinositol 5-phosphate 4-kinase type-2 alpha (Homo sapiens) (UniProt P48426); experiment: Inhibition of PIP4K2A ATP labeling site harbouring TVKHGAGAEISTVNPEQYSK in human Huh-7 cell lysate at 1 uM by KiNativ Profiling analysis relative to control; format: subcellular
T3 sequence (whole entry): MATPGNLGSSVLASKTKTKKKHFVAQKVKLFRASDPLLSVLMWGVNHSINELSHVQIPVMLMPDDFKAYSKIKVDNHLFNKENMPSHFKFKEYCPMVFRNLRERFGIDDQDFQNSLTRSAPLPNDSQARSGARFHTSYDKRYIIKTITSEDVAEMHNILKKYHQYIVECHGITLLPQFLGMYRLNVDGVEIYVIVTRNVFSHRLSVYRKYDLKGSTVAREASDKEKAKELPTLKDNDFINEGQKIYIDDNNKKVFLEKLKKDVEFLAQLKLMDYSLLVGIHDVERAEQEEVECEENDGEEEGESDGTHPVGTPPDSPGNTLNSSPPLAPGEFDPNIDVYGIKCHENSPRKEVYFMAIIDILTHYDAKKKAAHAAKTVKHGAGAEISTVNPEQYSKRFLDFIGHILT

Chain of Casein kinase I isoform epsilon (Homo sapiens) (P49674 whole entry, looked up, canonical isoform): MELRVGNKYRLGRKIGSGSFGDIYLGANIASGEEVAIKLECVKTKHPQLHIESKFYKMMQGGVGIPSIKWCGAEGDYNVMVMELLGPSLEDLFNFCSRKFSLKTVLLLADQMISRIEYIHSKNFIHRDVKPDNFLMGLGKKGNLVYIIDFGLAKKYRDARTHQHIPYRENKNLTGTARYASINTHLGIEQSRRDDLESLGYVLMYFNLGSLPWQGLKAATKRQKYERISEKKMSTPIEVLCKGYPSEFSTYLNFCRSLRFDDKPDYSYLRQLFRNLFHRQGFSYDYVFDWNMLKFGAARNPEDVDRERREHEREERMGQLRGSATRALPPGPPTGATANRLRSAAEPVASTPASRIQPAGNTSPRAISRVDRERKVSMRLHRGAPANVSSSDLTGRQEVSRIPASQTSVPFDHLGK
Chain of Serine/threonine-protein kinase Nek5 (Homo sapiens) (Q6P3R8 whole entry): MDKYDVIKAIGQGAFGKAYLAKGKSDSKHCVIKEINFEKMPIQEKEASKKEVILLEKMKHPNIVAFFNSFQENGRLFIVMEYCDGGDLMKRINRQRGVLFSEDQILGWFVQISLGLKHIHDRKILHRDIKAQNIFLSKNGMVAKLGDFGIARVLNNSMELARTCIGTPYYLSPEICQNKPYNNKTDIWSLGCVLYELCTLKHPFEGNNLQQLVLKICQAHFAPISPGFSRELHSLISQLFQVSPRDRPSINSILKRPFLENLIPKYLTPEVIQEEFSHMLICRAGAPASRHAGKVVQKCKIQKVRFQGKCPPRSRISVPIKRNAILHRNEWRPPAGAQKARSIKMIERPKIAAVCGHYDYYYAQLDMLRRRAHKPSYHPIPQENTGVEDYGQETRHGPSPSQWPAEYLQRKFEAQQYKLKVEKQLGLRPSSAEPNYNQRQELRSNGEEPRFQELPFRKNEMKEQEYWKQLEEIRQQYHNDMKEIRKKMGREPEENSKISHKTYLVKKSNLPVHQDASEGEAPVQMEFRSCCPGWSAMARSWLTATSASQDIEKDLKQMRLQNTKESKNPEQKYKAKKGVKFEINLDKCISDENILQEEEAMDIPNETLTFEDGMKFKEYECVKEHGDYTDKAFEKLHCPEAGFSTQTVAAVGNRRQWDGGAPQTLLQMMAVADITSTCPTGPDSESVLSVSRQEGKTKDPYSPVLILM
Chain of Insulin receptor-related protein (Homo sapiens) (P14616 whole entry, looked up): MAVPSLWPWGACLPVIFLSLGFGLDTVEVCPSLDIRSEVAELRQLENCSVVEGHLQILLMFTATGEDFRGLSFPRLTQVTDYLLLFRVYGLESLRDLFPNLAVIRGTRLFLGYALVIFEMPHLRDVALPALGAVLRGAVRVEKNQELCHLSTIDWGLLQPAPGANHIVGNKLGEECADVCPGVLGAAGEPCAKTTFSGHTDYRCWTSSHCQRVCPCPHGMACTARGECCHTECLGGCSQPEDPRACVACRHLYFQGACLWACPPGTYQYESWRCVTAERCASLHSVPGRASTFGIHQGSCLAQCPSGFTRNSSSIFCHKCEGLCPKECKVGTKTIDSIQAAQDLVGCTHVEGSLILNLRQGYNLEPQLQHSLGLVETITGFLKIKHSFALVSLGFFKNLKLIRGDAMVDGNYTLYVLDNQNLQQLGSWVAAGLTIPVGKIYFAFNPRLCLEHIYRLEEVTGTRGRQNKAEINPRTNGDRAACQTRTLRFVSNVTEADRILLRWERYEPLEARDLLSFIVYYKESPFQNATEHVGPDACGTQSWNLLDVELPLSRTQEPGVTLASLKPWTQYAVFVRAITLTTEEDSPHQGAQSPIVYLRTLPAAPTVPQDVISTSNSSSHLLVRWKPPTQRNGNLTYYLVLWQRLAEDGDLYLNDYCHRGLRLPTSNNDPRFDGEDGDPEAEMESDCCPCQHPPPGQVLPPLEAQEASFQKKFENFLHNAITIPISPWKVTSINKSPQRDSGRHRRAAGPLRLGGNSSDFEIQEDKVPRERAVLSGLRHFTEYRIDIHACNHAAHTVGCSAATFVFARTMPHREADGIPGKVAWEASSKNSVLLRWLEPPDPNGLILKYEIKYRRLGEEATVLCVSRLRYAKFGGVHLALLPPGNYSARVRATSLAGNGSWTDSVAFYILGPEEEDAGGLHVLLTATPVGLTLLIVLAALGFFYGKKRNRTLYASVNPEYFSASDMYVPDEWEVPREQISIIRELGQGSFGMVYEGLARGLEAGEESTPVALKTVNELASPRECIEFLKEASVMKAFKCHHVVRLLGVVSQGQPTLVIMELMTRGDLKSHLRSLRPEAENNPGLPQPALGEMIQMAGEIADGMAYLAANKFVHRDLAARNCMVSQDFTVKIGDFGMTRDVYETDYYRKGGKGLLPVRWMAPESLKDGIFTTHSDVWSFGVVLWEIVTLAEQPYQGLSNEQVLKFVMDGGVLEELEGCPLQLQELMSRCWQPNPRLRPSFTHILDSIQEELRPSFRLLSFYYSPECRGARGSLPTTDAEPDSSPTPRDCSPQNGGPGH
Chain of Mast/stem cell growth factor receptor Kit (Homo sapiens), P10721 [L576P] (P10721 whole entry L576P): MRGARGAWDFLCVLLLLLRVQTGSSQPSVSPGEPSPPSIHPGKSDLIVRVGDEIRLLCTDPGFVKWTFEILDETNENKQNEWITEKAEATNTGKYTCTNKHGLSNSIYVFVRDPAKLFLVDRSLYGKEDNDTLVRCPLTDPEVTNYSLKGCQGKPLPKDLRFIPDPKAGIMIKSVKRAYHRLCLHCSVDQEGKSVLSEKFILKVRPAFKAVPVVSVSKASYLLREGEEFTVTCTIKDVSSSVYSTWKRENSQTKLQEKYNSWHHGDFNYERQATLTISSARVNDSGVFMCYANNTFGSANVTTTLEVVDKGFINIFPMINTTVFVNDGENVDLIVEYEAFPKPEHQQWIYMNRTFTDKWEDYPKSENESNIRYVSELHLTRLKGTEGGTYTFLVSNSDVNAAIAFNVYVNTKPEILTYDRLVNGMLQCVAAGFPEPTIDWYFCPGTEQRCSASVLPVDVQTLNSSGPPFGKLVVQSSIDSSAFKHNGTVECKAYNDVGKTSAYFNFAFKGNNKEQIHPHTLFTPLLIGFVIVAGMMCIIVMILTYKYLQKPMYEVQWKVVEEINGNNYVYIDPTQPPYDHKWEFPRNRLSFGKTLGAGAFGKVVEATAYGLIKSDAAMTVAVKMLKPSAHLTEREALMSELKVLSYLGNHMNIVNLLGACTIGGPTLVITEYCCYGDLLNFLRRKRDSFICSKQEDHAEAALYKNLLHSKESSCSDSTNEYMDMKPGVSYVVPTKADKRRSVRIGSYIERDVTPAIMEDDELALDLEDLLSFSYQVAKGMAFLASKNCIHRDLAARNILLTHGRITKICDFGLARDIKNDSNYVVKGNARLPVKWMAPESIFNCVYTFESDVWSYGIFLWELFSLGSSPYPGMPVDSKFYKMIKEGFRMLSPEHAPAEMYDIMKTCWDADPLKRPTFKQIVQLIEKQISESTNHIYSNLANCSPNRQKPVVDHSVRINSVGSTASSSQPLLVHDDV
Chain of Microtubule-associated serine/threonine-protein kinase 3 (Homo sapiens) (O60307 whole entry): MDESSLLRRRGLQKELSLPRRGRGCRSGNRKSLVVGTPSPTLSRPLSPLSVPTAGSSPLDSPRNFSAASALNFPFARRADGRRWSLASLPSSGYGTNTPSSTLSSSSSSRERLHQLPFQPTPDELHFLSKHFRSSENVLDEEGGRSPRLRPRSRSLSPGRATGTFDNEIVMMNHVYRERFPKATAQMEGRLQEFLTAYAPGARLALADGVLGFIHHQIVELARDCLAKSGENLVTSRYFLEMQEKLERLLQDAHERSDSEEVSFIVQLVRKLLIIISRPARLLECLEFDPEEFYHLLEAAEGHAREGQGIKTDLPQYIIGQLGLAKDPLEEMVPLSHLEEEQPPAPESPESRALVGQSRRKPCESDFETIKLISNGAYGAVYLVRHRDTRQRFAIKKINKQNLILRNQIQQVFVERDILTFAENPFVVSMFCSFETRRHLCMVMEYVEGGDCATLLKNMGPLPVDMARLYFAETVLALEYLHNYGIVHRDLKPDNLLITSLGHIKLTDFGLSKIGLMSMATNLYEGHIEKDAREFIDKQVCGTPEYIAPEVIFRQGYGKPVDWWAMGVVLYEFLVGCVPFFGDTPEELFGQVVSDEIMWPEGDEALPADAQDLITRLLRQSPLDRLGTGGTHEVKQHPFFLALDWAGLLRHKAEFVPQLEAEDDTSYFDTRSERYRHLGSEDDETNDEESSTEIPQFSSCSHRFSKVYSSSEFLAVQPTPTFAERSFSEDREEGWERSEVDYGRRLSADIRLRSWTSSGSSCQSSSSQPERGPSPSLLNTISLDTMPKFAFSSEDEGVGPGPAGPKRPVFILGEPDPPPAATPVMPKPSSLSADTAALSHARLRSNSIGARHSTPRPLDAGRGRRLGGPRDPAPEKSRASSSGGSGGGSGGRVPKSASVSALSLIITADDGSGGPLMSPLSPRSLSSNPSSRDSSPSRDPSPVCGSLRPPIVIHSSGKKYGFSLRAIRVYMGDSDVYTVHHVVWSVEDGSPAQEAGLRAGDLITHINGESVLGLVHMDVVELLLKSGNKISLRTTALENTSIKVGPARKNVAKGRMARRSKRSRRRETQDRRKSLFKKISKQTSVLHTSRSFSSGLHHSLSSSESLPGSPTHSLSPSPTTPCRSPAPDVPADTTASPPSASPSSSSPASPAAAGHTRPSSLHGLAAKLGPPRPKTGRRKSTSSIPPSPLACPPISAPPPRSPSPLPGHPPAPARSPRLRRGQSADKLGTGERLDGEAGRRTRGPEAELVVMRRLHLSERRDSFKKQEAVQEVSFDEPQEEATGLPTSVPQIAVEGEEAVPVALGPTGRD

CCN1CCN(Cc2ccc(NC(=O)c3ccc(C)c(Oc4ccnc5[nH]ccc45)c3)cc2C(F)(F)F)CC1
inhibition [1]: -5.8%

CCN1CCN(Cc2ccc(NC(=O)c3ccc(C)c(/C=C/c4cnc5[nH]ccc5c4OC)c3)cc2C(F)(F)F)CC1
residual activity [2]: 100%
residual activity [3]: 47%
residual activity [4]: 0.15%
inhibition [5]: 37.6%

CNc1cc(Oc2cc(C(=O)Nc3cc(N4CCN(C)CC4)cc(C(F)(F)F)c3)ccc2C)ncn1
inhibition [6]: 0.6%
inhibition [7]: -0.3%
inhibition [8]: -5.4%
